Read-outs that look alike come from different tables or passages of the source.

One assay deals with cell culture. Nature of the assay: enhancement of cisplatin efficacy in cell culture. In kind it is cell-based. From the text:
The Tosyl adduct is necessary for compound 1's ability to enhance cisplatin activity and inhibit DNA repair. Without this functionality, no activity in cell culture was observed. Derivatives synthesized in Pathways B and C, take further advantage of the Tosyl functional group, including the sulfonate linkage itself. Pathway B focuses on varying the substitution on the toluene ring. By substitution of the methyl substituent with hydrogen (3a), as well as a halogen (3c) or a propyl group (3d), steric tolerance is adjusted at this position. Alternatively, addition of a heteroatom within the aromatic ring, whether it is an oxygen (3e) or a nitrogen (3f), has little effect upon the steric environment but alters the electronic nature of this key substituent. Removal of the aromatic ring and replacement with an alkene (3b) encompasses both the steric and electronic features at this position. Pathway C exemplifies compounds with differing linkers to the tosyl moiety, namely substitution of the sulfonate as a thioether (4a), sulfoxide (4b), ester (4c), and ether (4d) or amine (4e).

In a further assay the target is T1, ERCC1-XPF endonuclease (Homo sapiens, UniProt P07992+Q92889).
T1 sequence (Q92889 1-916): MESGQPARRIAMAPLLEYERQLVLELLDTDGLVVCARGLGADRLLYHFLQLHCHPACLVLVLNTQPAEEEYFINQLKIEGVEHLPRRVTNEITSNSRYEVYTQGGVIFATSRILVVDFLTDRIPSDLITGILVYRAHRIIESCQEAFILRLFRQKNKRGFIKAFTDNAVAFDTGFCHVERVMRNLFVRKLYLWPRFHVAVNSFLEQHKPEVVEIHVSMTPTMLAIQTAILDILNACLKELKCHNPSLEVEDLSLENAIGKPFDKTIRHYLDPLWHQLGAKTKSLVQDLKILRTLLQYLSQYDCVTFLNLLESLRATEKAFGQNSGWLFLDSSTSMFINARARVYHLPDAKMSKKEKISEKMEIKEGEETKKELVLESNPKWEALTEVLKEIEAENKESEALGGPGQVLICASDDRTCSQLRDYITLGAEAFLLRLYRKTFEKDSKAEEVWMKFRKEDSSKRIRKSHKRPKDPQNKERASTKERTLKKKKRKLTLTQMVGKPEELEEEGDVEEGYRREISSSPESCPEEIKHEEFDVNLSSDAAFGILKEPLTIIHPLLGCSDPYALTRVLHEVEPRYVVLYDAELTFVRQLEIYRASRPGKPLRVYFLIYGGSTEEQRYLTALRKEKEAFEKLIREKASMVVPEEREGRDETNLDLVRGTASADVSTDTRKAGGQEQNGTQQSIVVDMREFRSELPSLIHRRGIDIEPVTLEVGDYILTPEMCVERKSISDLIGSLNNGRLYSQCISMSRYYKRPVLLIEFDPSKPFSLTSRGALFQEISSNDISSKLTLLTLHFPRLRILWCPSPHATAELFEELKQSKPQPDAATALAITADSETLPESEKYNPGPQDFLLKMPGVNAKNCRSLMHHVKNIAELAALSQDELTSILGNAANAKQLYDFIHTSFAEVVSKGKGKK
T1 sequence (P07992 1-297): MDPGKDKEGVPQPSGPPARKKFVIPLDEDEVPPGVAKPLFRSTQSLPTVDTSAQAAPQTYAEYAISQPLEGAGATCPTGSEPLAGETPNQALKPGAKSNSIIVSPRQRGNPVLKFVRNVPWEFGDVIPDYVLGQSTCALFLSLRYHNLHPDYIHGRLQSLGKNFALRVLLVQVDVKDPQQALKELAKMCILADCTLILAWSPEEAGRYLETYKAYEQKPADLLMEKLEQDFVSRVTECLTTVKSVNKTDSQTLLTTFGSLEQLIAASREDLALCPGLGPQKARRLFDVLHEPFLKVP
The assay is described as follows: fluorescence based DNA incision assay with purified ERCC1-XPF. In kind it is biochemical. To be noted: purified enzyme, forked fluorescent DNA substrate. The text has this: Described herein is a robust fluorescence based incision assay which was used to initially screen a diverse drug library (˜2,000 compounds) in order to identify inhibitors of the ERCC1-XPF endonuclease. From the initial screen, five (5) small molecule Hits were identified that inhibited ERCC1-XPF nuclease activity with micromolar to nanomolar potency.
(§1) For at least one reason, the lead compound was selected based on having nanomolar potency in the fluorescence assay (FIG. 2) and having the best response in enhancing cisplatin efficacy in cell culture models. Titration of lead compound in the ERCC1-XPF fluorescence assay yields an IC50 value of 400-500 nM (FIG. 2).
(§2) The synthesized compounds were tested in the in vitro fluorescence incision assay and radiolabeled DNA incision assay for potency and selectivity against ERCC1-XPF. These assays are based on forked synthetic DNA substrates and purified enzyme. The fluorescent DNA substrate is designed such that a fluorophore (Fl) is incorporated into the top DNA strand while a quencher (Q) molecule is incorporated in the bottom DNA strand and in close proximity to the Fl (FIG. 5).
When the DNA substrate is annealed, the Q quenches the fluorescent signal and results in low background fluorescence. […]

Assay [1] relates to 2008/C13*5.25 (resistant) ovarian cancer cell line. The assay is described as follows: colony survival after ERCC1-XPF siRNA and cisplatin treatment. In kind it is cell-based. Particulars: control siRNA; 2008/C13*5.25 vs 2008. From the text:
FIG. 1: Colony survival in matched ovarian cancer cell lines. 2008 (sensitive, squares) and 2008/C13*5.25 (resistant, circles) ovarian cancer cell lines were transfected with control or ERCC1-XPF siRNA and subjected to cisplatin treatment. IC50 values are indicated.
In order to assess whether ERCC1-XPF influences cisplatin resistance in ovarian cancer cell lines, a matched set of parental sensitive (2008s) and daughter resistant cell lines (2008/C13*5.25) were obtained. These are well characterized cell lines for assessing cisplatin resistance and effects in ovarian cancer.
Following greater than 90% ERCC1-XPF knockdown (data not shown), the resistant daughter cell line has a nearly 5-fold change in cisplatin sensitivity, making the cells as sensitive as the parental sensitive cell line (compare open circles with filled squares).

The test system of assay [2] is lung cancer cell line (H460). The assay is described as follows: colony survival with cisplatin IC50 concentration, lead compound titrated (Combination Factor). In kind it is cell-based. The protocol:
(§3) Cells were treated with the cisplatin IC50 concentration while the lead compound was titrated into the experiment, and colony survival assessed. The Combination Factor is the concentration of lead compound that is required to enhance cisplatin IC50 values by 2-fold.

Assay [3] deals with cisplatin resistant ovarian cancer cell line (2008/C13*5.25). Described as above. In kind it is cell-based. To be noted: 2008/C13*5.25, colony survival. The protocol: as §3
The next assay has as its target T2, ERCC1-XPF (Homo sapiens, UniProt P07992+Q92889).
T2 sequence (Q92889 1-916): T1 sequence (Q92889 1-916)
T2 sequence (P07992 1-297): T1 sequence (P07992 1-297)
Nature of the assay: radiolabeled DNA incision assay (radiometric inhibition assay). The format is biochemical. Particulars: read-out: 50% inhibition in radiometric inhibition assay. The protocol:
as §1, §2

For the compound `COc1cc(S(=O)(=O)O)cc2cc(S(=O)(=O)O)cc(N)c12` [boxed portion of the molecule, reference compound], the “effect in cell culture” value in the assay on cell culture (data not shown) was “no effect”. The IC50 on ERCC1-XPF endonuclease (read-out: 50% fluorescent inhibition in the fluorescence incision assay) fell in the range of 3.2 to 3.6 µM.

With `N.N.[Cl][Pt][Cl]` [cisplatin], the “fold resistance to cisplatin, comparing IC50 values to the parental sensitive cell line” value in assay [1] was around 4 fold.

Turning to `Cc1ccc(S(=O)(=O)Oc2cc(S(=O)(=O)O)cc3cc(S(=O)(=O)O)cc(N)c23)cc1` [compound 1], the IC50 with cell culture (with cisplatin, cell line not stated, read-out: enhancing cisplatin efficacy in cell culture (IC50)) was 4 µM; at ERCC1-XPF endonuclease (read-out: IC50 (50% inhibition) in ERCC1-XPF fluorescence assay), 0.4 to 0.5 µM; at ERCC1-XPF, 0.4 to 0.5 µM. For the same compound, the “Combination Factor: concentration of lead compound required to enhance cisplatin IC50 values by 2-fold” value is 7 to 8 µM in assay [2] and “low micromolar range” in assay [3].

For the origin of these results see US9821008B2, “Inhibitors of ERCC1-XPF and methods of using the same” (The University of Toledo, priority 2013, dated 2017).
